Drawing on patent publication US20090299044A1 (priority 2006, published 2009), this text covers IC50 for 6 compounds.

Bridge positions count the residues as written; N and C are the ends. Square brackets hold non-standard residues; d marks the D form. Peptide text beside a SMILES is read from it. 1Nal = N[C@@H](Cc1cccc2ccccc12)C(=O)O

One assay addresses T1, human Kv1.3 (CHO) (Homo sapiens, UniProt P22001).
T1 construct: expressed in transfected cells; host or cells: CHO
Put plainly: cell-based.

Another assay concerns the target T2, human Kv1.1 (HEK293) (Homo sapiens, UniProt Q09470).
T2 construct: expressed in transfected cells; host or cells: HEK293
Put plainly: cell-based.

T2 sequence (Q09470 whole entry): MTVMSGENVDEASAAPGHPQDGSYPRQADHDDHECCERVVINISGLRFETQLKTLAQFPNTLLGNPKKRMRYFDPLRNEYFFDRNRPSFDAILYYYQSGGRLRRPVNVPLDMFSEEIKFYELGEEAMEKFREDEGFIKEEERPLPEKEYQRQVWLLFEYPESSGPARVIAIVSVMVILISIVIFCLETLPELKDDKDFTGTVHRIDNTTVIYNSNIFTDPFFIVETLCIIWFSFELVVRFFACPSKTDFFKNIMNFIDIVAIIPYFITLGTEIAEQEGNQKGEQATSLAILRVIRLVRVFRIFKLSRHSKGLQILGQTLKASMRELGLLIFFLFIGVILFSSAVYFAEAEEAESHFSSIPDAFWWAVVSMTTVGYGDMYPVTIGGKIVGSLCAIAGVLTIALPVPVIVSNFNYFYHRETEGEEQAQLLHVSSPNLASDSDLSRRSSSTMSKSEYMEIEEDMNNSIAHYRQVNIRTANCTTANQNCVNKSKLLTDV
T1 sequence (P22001 whole entry): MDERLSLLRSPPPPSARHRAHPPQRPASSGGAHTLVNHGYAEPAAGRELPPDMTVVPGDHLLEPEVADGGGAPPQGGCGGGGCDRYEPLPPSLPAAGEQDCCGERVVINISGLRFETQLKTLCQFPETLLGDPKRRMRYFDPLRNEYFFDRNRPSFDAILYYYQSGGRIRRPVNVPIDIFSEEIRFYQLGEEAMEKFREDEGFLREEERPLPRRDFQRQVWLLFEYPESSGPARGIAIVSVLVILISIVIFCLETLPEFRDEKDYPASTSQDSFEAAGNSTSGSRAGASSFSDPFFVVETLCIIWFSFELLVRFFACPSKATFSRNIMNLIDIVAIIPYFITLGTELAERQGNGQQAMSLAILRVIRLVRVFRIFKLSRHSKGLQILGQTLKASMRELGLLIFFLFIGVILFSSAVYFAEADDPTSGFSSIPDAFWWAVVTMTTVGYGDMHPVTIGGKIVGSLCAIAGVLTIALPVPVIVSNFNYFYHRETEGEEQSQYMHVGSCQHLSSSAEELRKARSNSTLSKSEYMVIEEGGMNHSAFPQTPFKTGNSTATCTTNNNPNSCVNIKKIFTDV

Regarding `CC[C@H](C)[C@@H]1NC(=O)[C@H](CCCCN)NC(=O)[C@@H](NC(=O)[C@H](CCCCN)NC(=O)[C@@H](NC(=O)[C@H](CC(N)=O)NC(=O)[C@@H](NC(=O)[C@@H](NC(=O)[C@@H](NC(=O)CN)C(C)C)[C@@H](C)CC)[C@@H](C)CC)C(C)C)CSSC[C@@H]2NC(=O)[C@H](CCCCN)NC(=O)CNC(=O)[C@H](Cc3ccccc3)NC(=O)[C@H](CCCNC(=N)N)NC(=O)[C@H](CCSC)NC(=O)CNC(=O)[C@H](C)NC(=O)[C@H](CCCCN)NC(=O)[C@H](CCCCN)NC(=O)[C@@H]3CSSC[C@@H](C(=O)N[C@H](C(=O)N4CCC[C@H]4C(=O)N[C@@H](CCCCN)C(=O)O)[C@@H](C)O)NC(=O)[C@H](Cc4c[nH]cn4)NC(=O)[C@H](CSSC[C@H](NC(=O)[C@H](CCC(N)=O)NC(=O)[C@H](CCCNC(=N)N)NC(=O)[C@H](CO)NC1=O)C(=O)N[C@@H](CC(C)C)C(=O)N[C@@H](CCC(=O)O)C(=O)N[C@@H](C)C(=O)N3)NC(=O)[C@H](CCCCN)NC(=O)CNC(=O)[C@H](CC(N)=O)NC(=O)[C@H](CCSC)NC2=O` [P17A] (H-GVIINVKCKISRQCLEACKKAGMRFGKCMNGKCHCTPK-OH; disulfide 8-28, 14-33, 18-35), the IC50 against human Kv1.3 (CHO) was found to be 0.0339 nM; against human Kv1.1 (HEK293), 0.00908 nM.

On to `CC[C@H](C)[C@@H]1NC(=O)[C@H](CCCCN)NC(=O)[C@@H](NC(=O)[C@H](CCCCN)NC(=O)[C@@H](NC(=O)[C@H](CC(N)=O)NC(=O)[C@@H](NC(=O)[C@@H](NC(=O)[C@@H](NC(=O)CN)C(C)C)[C@@H](C)CC)[C@@H](C)CC)C(C)C)CSSC[C@@H]2NC(=O)[C@H](CCCCN)NC(=O)CNC(=O)[C@H](Cc3ccccc3)NC(=O)[C@H](CCCNC(=N)N)NC(=O)[C@H](CCSC)NC(=O)CNC(=O)[C@H](C)NC(=O)[C@H](CCCCN)NC(=O)[C@H](CCCCN)NC(=O)[C@@H]3CSSC[C@@H](C(=O)N[C@H](C(=O)N4CCC[C@H]4C(=O)N[C@@H](CCCCN)C(=O)O)[C@@H](C)O)NC(=O)[C@H](Cc4c[nH]cn4)NC(=O)[C@H](CSSC[C@H](NC(=O)[C@H](CCC(N)=O)NC(=O)[C@H](CCCNC(=N)N)NC(=O)[C@H](CO)NC1=O)C(=O)N[C@@H](CC(C)C)C(=O)N[C@@H](CCC(=O)O)C(=O)N[C@@H](CCC(=O)O)C(=O)N3)NC(=O)[C@H](CCCCN)NC(=O)CNC(=O)[C@H](CC(N)=O)NC(=O)[C@H](CCSC)NC2=O` [P17E] (H-GVIINVKCKISRQCLEECKKAGMRFGKCMNGKCHCTPK-OH; disulfide 8-28, 14-33, 18-35), for which the IC50 against human Kv1.3 (CHO) is 0.0145 nM; against human Kv1.1 (HEK293), 0.00181 nM.

On to `CC[C@H](C)[C@@H]1NC(=O)[C@H](CCCCN)NC(=O)[C@@H](NC(=O)[C@H](CCCCN)NC(=O)[C@@H](NC(=O)[C@H](CC(N)=O)NC(=O)[C@@H](NC(=O)[C@@H](NC(=O)[C@@H](NC(=O)CN)C(C)C)[C@@H](C)CC)[C@@H](C)CC)C(C)C)CSSC[C@@H]2NC(=O)[C@H](CCCCN)NC(=O)CNC(=O)[C@H](Cc3ccccc3)NC(=O)[C@H](CCCNC(=N)N)NC(=O)[C@H](CCSC)NC(=O)CNC(=O)[C@H](C)NC(=O)[C@H](CCCCN)NC(=O)[C@H](CCCCN)NC(=O)[C@@H]3CSSC[C@@H](C(=O)N[C@H](C(=O)N4CCC[C@H]4C(=O)N[C@@H](CCCCN)C(=O)O)[C@@H](C)O)NC(=O)[C@H](Cc4c[nH]cn4)NC(=O)[C@H](CSSC[C@H](NC(=O)[C@H](CCC(N)=O)NC(=O)[C@H](CCCNC(=N)N)NC(=O)[C@H](CO)NC1=O)C(=O)N[C@@H](CC(C)C)C(=O)N[C@@H](CCC(=O)O)C(=O)N[C@@H](Cc1cccc4ccccc14)C(=O)N3)NC(=O)[C@H](CCCCN)NC(=O)CNC(=O)[C@H](CC(N)=O)NC(=O)[C@H](CCSC)NC2=O` [P17Nal] (H-GVIINVKCKISRQCLE[1Nal]CKKAGMRFGKCMNGKCHCTPK-OH; disulfide 8-28, 14-33, 18-35), for which the figures for the IC50 against human Kv1.3 (CHO) and on human Kv1.1 (HEK293) were 0.0162 nM and under 0.00152 nM, respectively.

Regarding `CC[C@H](C)[C@@H]1NC(=O)[C@H](CCCCN)NC(=O)[C@@H](NC(=O)[C@H](CCCCN)NC(=O)[C@@H](NC(=O)[C@H](CC(N)=O)NC(=O)[C@@H](NC(=O)[C@@H](NC(=O)[C@@H](NC(=O)CN)C(C)C)[C@@H](C)CC)[C@@H](C)CC)C(C)C)CSSC[C@@H]2NC(=O)[C@H](CCCCN)NC(=O)CNC(=O)[C@H](Cc3ccccc3)NC(=O)[C@H](CCCNC(=N)N)NC(=O)[C@H](CCSC)NC(=O)CNC(=O)[C@H](C)NC(=O)[C@H](CCCCN)NC(=O)[C@H](CCCCN)NC(=O)[C@@H]3CSSC[C@@H](C(=O)N[C@H](C(=O)N4CCC[C@H]4C(=O)N[C@@H](CCCCN)C(=O)O)[C@@H](C)O)NC(=O)[C@H](Cc4c[nH]cn4)NC(=O)[C@H](CSSC[C@H](NC(=O)[C@H](CCC(N)=O)NC(=O)[C@H](CCCNC(=N)N)NC(=O)[C@H](CO)NC1=O)C(=O)N[C@@H](CC(C)C)C(=O)N[C@@H](CCC(=O)O)C(=O)N[C@@H](CCCNC(=N)N)C(=O)N3)NC(=O)[C@H](CCCCN)NC(=O)CNC(=O)[C@H](CC(N)=O)NC(=O)[C@H](CCSC)NC2=O` [P17R] (H-GVIINVKCKISRQCLERCKKAGMRFGKCMNGKCHCTPK-OH; disulfide 8-28, 14-33, 18-35), the IC50 at human Kv1.3 (CHO) was 0.0104 nM; against human Kv1.1 (HEK293) it was under 0.00152 nM.

For the compound `CC[C@H](C)[C@@H]1NC(=O)[C@H](CCCCN)NC(=O)[C@@H](NC(=O)[C@H](CCCCN)NC(=O)[C@@H](NC(=O)[C@H](CC(N)=O)NC(=O)[C@@H](NC(=O)[C@@H](NC(=O)[C@@H](NC(=O)CN)C(C)C)[C@@H](C)CC)[C@@H](C)CC)C(C)C)CSSC[C@@H]2NC(=O)[C@H](CCCCN)NC(=O)CNC(=O)[C@H](Cc3ccccc3)NC(=O)[C@H](CCCNC(=N)N)NC(=O)[C@H](CCSC)NC(=O)CNC(=O)[C@H](C)NC(=O)[C@H](CCCCN)NC(=O)[C@H](CCCCN)NC(=O)[C@@H]3CSSC[C@@H](C(=O)N[C@H](C(=O)N[C@@H](Cc4cccc5ccccc45)C(=O)N[C@@H](CCCCN)C(=O)O)[C@@H](C)O)NC(=O)[C@H](Cc4c[nH]cn4)NC(=O)[C@H](CSSC[C@H](NC(=O)[C@H](CCC(N)=O)NC(=O)[C@H](CCCNC(=N)N)NC(=O)[C@H](CO)NC1=O)C(=O)N[C@@H](CC(C)C)C(=O)N[C@@H](CCC(=O)O)C(=O)N1CCC[C@H]1C(=O)N3)NC(=O)[C@H](CCCCN)NC(=O)CNC(=O)[C@H](CC(N)=O)NC(=O)[C@H](CCSC)NC2=O` [P37Nal] (H-GVIINVKCKISRQCLEPCKKAGMRFGKCMNGKCHCT[1Nal]K-OH; disulfide 8-28, 14-33, 18-35), the results for the IC50 against human Kv1.3 (CHO) and at human Kv1.1 (HEK293) were 0.0708 nM and 0.00674 nM, respectively.

For `CC[C@H](C)[C@@H]1NC(=O)[C@H](CCCCN)NC(=O)[C@@H](NC(=O)[C@H](CCCCN)NC(=O)[C@@H](NC(=O)[C@H](CC(N)=O)NC(=O)[C@@H](NC(=O)[C@@H](NC(=O)[C@@H](NC(=O)CN)C(C)C)[C@@H](C)CC)[C@@H](C)CC)C(C)C)CSSC[C@@H]2NC(=O)[C@H](CCCCN)NC(=O)CNC(=O)[C@H](Cc3ccccc3)NC(=O)[C@H](CCCNC(=N)N)NC(=O)[C@H](CCSC)NC(=O)CNC(=O)[C@H](C)NC(=O)[C@H](CCCCN)NC(=O)[C@H](CCCCN)NC(=O)[C@@H]3CSSC[C@@H](C(=O)N[C@H](C(=O)N[C@@H](CCCNC(=N)N)C(=O)N[C@@H](CCCCN)C(=O)O)[C@@H](C)O)NC(=O)[C@H](Cc4c[nH]cn4)NC(=O)[C@H](CSSC[C@H](NC(=O)[C@H](CCC(N)=O)NC(=O)[C@H](CCCNC(=N)N)NC(=O)[C@H](CO)NC1=O)C(=O)N[C@@H](CC(C)C)C(=O)N[C@@H](CCC(=O)O)C(=O)N1CCC[C@H]1C(=O)N3)NC(=O)[C@H](CCCCN)NC(=O)CNC(=O)[C@H](CC(N)=O)NC(=O)[C@H](CCSC)NC2=O` [P37R] (H-GVIINVKCKISRQCLEPCKKAGMRFGKCMNGKCHCTRK-OH; disulfide 8-28, 14-33, 18-35), the IC50 was 0.0133 nM against human Kv1.3 (CHO) and 0.00201 nM against human Kv1.1 (HEK293).
